# Patent publication US9309261B2, “Spirooxindole derivative and process for producing the same” (OKINAWA INSTITUTE OF SCIENCE AND TECHNOLOGY SCHOOL …, priority 2012, dated 2016)
# Experiments:
# [1] = Cytotoxicity: K562 cell growth inhibition (Cell Counting Kit-8, WST-8); assay type: cell-based; details: human, K562 cells
# Method: K562 cells (American Type Culture Collection) were cultured in a culture medium containing 10% (v/v) fetal calf serum (FCS) (manufactures by Sigma) to logarithmic phase. The cells were seeded in 96-well microtiter plate at a density of 5000 cells/well in 100 μL cell culture medium and incubated at 37° C. and 5% CO2 in a humidified incubator overnight. The test compounds of various concentrations were added in a well at 10 fold concentration in 1/10 volume of medium without FCS. After 6-48 hrs incubation at 37° C. in the CO2 incubator, 10 μL solution of the viable cell counting reagent, Cell counting Kit-8 (5 mmol/L WST-8, 0.2 mmol/L 1-Methoxy PMS, 150 mmol/L NaCl) (manufactured by Dojindo) was added to each well, and reacted for 1 to 4 hours in the CO2 incubator. After the incubation, an absorbance of formazan, generated by reduction of WST-8 was determined at 450 nm using a microplate reader.
# The assay readout is correlated with the viable cell numbers. Small values correspond to high inhibition and larger values to low inhibition of the cell growth. To determine IC50 values (i.e. the concentration inhibiting the cell growth by 50%) of the compound of formula I, several assays were made with a range of concentrations chosen empirically to give low, high and intermediate inhibition of the growth and determined using the curve fitting software.
# IC50 values can be converted logarithmically to pIC50 values (−log IC50), in which higher values indicate exponentially greater potency. The IC50 value is not an absolute value but depends on experimental conditions e.g. concentrations employed.
# [2] = system: tumor cells in which both WNT and KRas signaling pathways are activated; assay: Selective lethality to tumor cells with activated WNT and KRas signaling; assay type: cell-based
# Hexokinase-II (HK-II) = target: T1, Hexokinase-II (HK-II) (Homo sapiens, UniProt P52789); assay: Hexokinase 2 inhibition (Transcreener ADP2 assay); assay type: biochemical; details: read-out: HK-II Inhibition ADP-FP (% inhibition at 20 μM)
# T1 sequence (P52789 1-917): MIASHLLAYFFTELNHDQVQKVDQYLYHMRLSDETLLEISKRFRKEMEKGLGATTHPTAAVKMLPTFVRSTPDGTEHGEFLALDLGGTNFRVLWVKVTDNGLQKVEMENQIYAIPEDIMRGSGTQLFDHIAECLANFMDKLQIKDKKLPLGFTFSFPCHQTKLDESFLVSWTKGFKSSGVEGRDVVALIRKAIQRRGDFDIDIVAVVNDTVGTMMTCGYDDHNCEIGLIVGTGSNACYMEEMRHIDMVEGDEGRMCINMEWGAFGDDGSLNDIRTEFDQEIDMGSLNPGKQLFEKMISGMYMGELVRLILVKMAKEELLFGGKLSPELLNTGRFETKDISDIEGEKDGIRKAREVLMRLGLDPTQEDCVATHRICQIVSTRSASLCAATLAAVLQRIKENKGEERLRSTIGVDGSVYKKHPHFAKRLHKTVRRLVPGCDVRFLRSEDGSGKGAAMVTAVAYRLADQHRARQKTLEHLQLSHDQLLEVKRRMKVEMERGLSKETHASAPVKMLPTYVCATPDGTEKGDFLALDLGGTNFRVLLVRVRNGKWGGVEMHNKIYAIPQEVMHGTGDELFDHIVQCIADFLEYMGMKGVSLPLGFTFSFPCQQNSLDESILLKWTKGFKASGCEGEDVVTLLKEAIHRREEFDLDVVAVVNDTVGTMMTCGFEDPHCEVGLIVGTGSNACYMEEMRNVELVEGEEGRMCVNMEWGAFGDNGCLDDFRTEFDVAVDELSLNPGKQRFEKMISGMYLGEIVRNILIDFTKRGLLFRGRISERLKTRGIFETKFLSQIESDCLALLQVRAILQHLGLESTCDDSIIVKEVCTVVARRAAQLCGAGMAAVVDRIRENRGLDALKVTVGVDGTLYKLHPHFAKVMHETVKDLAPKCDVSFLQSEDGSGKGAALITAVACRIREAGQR
# From the text: It is well known that tumor cells mainly rely on glycolysis for energy generation and intermediary metabolism, a phenomenon known as the Warburg effect. Hexokinase-II (HK-II), a key enzyme of glycolysis, catalyzes the first step in the conversion of glucose to glucose-6-phosphate. HK-II is highly expressed in many types of tumors and its expression is correlated with glucose uptake, tumor aggressiveness, and poor survival prognosis. Inhibition of HK-II activity attenuates tumor cell growth and induces apoptosis.
# The test compounds were added to a typical reaction mixture of HK-II, and the produced ADP concentrations were determined using Transcreener® ADP^2 FI Assay (BellBrook Labs, Madison, Wis., USA).
structure (smiles),measurement,setting,value
CCC[C@@H]1C/C(=N/NS(=O)(=O)c2ccc(C)cc2)C[C@@]2(O1)C(=O)Nc1ccccc12 (stereo in doubt),melting point,,197 to 199 °C
"CCC[C@@H]1CC(=O)C[C@@]2(O1)C(=O)Nc1ccccc12 [Compound 3aa, (2′S,6′R)-6′-Propyl-5′,6′-dihydrospiro[indoline-3,2′-pyran)-2,4′(3′H)-dione]",IC50,[1]; sample of 99% ee,130 µM
same,IC50,[1]; sample with no ee given,125 µM
same,melting point,,118 to 120 °C
"CCC[C@@H]1CC(=O)C[C@@]2(O1)C(=O)Nc1cccc(Cl)c12 [Compound 3ab, (2′S,6′R)-4-chloro-6′-propyl-5′,6′-dihydrospiro[indoline-3,2′-pyran]-2,4′(3′H)-dione]",IC50,[1]; sample with no ee given,15 µM
same,activity selectively lethal to tumor cells in which both WNT and KRas signaling pathways are activated,[2],selectively lethal
"CCC[C@@H]1CC(=O)C[C@@]2(O1)C(=O)Nc1cccc(Br)c12 [Compound 3ac, (2′S,6′R)-4-bromo-6′-propyl-5′,6-dihydrospiro[indoline-3,2′-pyran]-2,4′(3′H)-dione]",IC50,[1]; sample of 82% ee,16 µM
same,activity selectively lethal to tumor cells in which both WNT and KRas signaling pathways are activated,[2],selectively lethal
"CCC[C@@H]1CC(=O)C[C@@]2(O1)C(=O)Nc1ccc(Br)cc12 [Compound 3ae, (2′S,6′R)-5-bromo-6′-propyl-5′,6′-dihydrospiro[indoline-3,2′-pyran]-2,4′(3′H)-dione]",IC50,[1]; sample with no ee given,20 µM
same,activity selectively lethal to tumor cells in which both WNT and KRas signaling pathways are activated,[2],selectively lethal
"CCC[C@@H]1CC(=O)C[C@@]2(O1)C(=O)Nc1cc(Cl)ccc12 [Compound 3af, (2′S,6′R)-6-chloro-6′-propyl-5′,6′-dihydrospiro[indoline-3,2′-pyran]-2,4′(3′H)-dione]",IC50,[1]; sample with no ee given,21 µM
same,activity selectively lethal to tumor cells in which both WNT and KRas signaling pathways are activated,[2],selectively lethal
"O=C1C[C@@H](CCN2C(=O)c3ccccc3C2=O)O[C@]2(C1)C(=O)Nc1ccccc12 [Compound 3ga, (2′S,6′R)-6′-(2-(1,3-dioxoisoindolin-2-yl)ethyl)-5′,6′-dihydrospiro[indoline-3,2′-pyran]-2,4′(3′H)-dione]",IC50,[1]; sample of 91% ee,113 µM
same,melting point,,199 to 201 °C
"O=C1C[C@H](c2ccccc2)O[C@@]2(C1)C(=O)Nc1ccccc12 [Compound 3ja, (2′R,6′R)-6′-phenyl-5′,6′-dihydrospiro[indoline-3,2′-pyran]-2,4′(3′H)-dione]",inhibition at 20 µM,Hexokinase-II (HK-II),33.8%
same,activity selectively lethal to tumor cells in which both WNT and KRas signaling pathways are activated,[2],selectively lethal
"CCC[C@@H]1C[C@@H](O)C[C@@]2(O1)C(=O)Nc1ccccc12 [Compound 5, (2′S,4′R,6′R)-4′-hydroxy-6′-propyl-3′,4′,5′,6′-tetrahydrospiro[indoline-3,2′-pyran]-2-one]",IC50,[1]; sample of 92% ee,> 245 µM
same,IC50,[1]; sample with no ee given,> 245 µM
same,melting point,,169 to 171 °C
"CCC[C@@H]1C[C@@H](NCc2ccccc2)C[C@@]2(O1)C(=O)Nc1ccccc12 [Compound 6, (2′S,4′R,6′R)-4′-(benzylamino)-6-propyl-3′,4′,5′,6-tetrahydrospiro[indoline-3,2′-pyran]-2-one]",inhibition at 20 µM,Hexokinase-II (HK-II),37.7%
"C=CC[C@@]1(O)C[C@@H](CCC)O[C@]2(C1)C(=O)Nc1ccccc12 [Compound 7, (2′S,4′R,6′R)-4′-allyl-4′-hydroxy-6-propyl-3′,4′,5′,6-tetrahydrospiro[indoline-3,2′-pyran]-2-one]",IC50,[1]; sample of 87% ee,> 212 µM
same,IC50,[1]; sample with no ee given,> 212 µM
same,melting point,,189 to 191 °C
